# Laboratory results published in US8552176B2 (priority 2010, dated 2013).
# Read-outs that look alike come from different tables or passages of the source.
# Tests used:
# Test in all cases: cells
# MCF7 = assay type: cell-based, human; details: read-out: GI50 MCF7 breast
# SKOV3 = assay type: cell-based, human; details: read-out: GI50 SKOV3 ovary
# H1299 = assay type: cell-based, human; details: read-out: GI50 H1299 lung (−p53)
# SF-268 = assay type: cell-based, human; details: read-out: GI50 SF-268 CNS
# DU-145 = assay type: cell-based, human; details: read-out: GI50 DU-145 prostate
# HT29 = assay type: cell-based, human; details: read-out: GI50 HT29 colorectal
# [1] = system: ten-member panel of human carcinomas; assay type: cell-based
# A549 = assay type: cell-based, human; details: read-out: GI50 A549 lung (+p53)
# HCT-15 = assay type: cell-based, human; details: read-out: GI50 HCT-15 colorectal
# Hep3b = assay type: cell-based, human; details: read-out: GI50 Hep3b liver
# NCI-H460 = assay type: cell-based, human; details: read-out: GI50 NCI-H460 lung
Compound,GI50 (MCF7),GI50 (SKOV3),GI50 (H1299),GI50 (SF-268),GI50 (DU-145),GI50 (HT29),GI50 (A549),GI50 (HCT-15),GI50 (Hep3b),GI50 (NCI-H460),also measured
"CON(CCCCc1ccc(N(CCCl)CCCl)cc1)C1OCC(O)C(O)C1O (mixture of isomers) [Compound 53, N-Methoxy-4-(4-N′,N′-bis(2-chloroethyl)amino)phenylbutylamino-D-riboside]",1.1 ± 0.1 µM,2 ± 0.1 µM,3.6 ± 0.3 µM,1.9 ± 0.1 µM,3.8 ± 0.6 µM,2.3 ± 0.1 µM,2.8 ± 0.1 µM,1.8 ± 0.1 µM,2.4 ± 0.1 µM,5.9 ± 0.7 µM,GI50 ([1]; read-out: GI50): 1.8 to 5.9 µM
"O=C(O)CCCc1ccc(N(CCCl)CCCl)cc1 [Compound 1, Chlorambucil, reference compound]",–,–,–,–,–,–,–,–,–,–,"GI50 (MCF7; Homo sapiens, MCF7, 168 h): 8.2 ± 0.2 µM; GI50 (SKOV3; Homo sapiens, SK-OV-3, 168 h): 5.5 ± 0.4 µM; GI50 (H1299; Homo sapiens, NCI-H1299, 168 h): 4.9 ± 0.2 µM; GI50 (SF-268; Homo sapiens, SF-268, 168 h): 5.4 ± 0.1 µM; GI50 (DU-145; Homo sapiens, DU-145, 168 h): 9.4 ± 0.2 µM; GI50 (HT29; Homo sapiens, HT-29, 168 h): 5 ± 0.3 µM; GI50 ([1]; Homo sapiens, read-out: GI50 values): 5 to 11 µM; GI50 (A549; Homo sapiens, A549, 168 h): 6.1 ± 0.3 µM; GI50 (HCT-15; Homo sapiens, HCT-15, 168 h): 8.1 ± 0.1 µM; GI50 (Hep3b; Homo sapiens, Hep3B, 168 h): 5.1 ± 0.2 µM; GI50 (NCI-H460; Homo sapiens, NCI-H460, 168 h): 11 ± 0.9 µM"
CON(CCCCc1ccc(N(CCCl)CCCl)cc1)[C@@H]1O[C@@H](CO)[C@@H](O)[C@@H](O)[C@H]1O [Compound 59],1.8 ± 0.3 µM,2 ± 0.1 µM,2.4 ± 0.2 µM,1.7 ± 0.1 µM,3.4 ± 0.1 µM,1.9 ± 0.1 µM,2.7 ± 0.2 µM,2 ± 0.1 µM,2.6 ± 0.1 µM,4.3 ± 0.4 µM,–
CON(CCCCc1ccc(N(CCCl)CCCl)cc1)C1OCC(O)C1O (stereo not drawn) [Compound 61],0.87 ± 0.09 µM,2.1 ± 0.1 µM,0.72 ± 0.03 µM,1.3 ± 0.1 µM,2.1 ± 0.1 µM,1.2 ± 0.1 µM,2 ± 0.2 µM,0.82 ± 0.05 µM,1.4 ± 0.1 µM,1.9 ± 0.5 µM,–
CON(CCCCc1ccc(N(CCCl)CCCl)cc1)C1OCC(O)C(O)C1O (stereo not drawn) [Compound 62],0.91 ± 0.09 µM,2.2 ± 0.1 µM,0.83 ± 0.04 µM,1.4 ± 0.1 µM,2.3 ± 0.1 µM,1.6 ± 0.1 µM,2.3 ± 0.1 µM,0.9 ± 0.05 µM,1.5 ± 0.1 µM,4.5 ± 0.4 µM,–
CON(CCCCc1ccc(N(CCCl)CCCl)cc1)C1OCC(O)C(O)C1O (stereo not drawn) [Compound 63],1.2 ± 0.2 µM,2.4 ± 0.1 µM,0.93 ± 0.03 µM,1.5 ± 0.1 µM,2.2 ± 0.1 µM,1.5 ± 0.1 µM,2.2 ± 0.1 µM,0.83 ± 0.04 µM,1.6 ± 0.1 µM,2.9 ± 0.3 µM,–
"C[C@H]1OC(N(O)CCCCc2ccc(N(CCCl)CCCl)cc2)[C@H](O)[C@@H](O)[C@H]1O (stereo partly drawn) [Compound 66, N-Hydroxy-4-(4-N′,N′-bis(2-chloroethyl)amino)phenylbutylamino-D-fucoside]",2.7 ± 0.1 µM,4.7 ± 0.1 µM,2.6 ± 0.1 µM,1.4 ± 0.1 µM,5.7 ± 0.4 µM,4.6 ± 0.1 µM,6.4 ± 0.3 µM,3.8 ± 0.3 µM,3.6 ± 0.3 µM,4.9 ± 0.2 µM,–
"O=C1O[C@@H]2[C@@H](O)[C@H](N(O)CCCCc3ccc(N(CCCl)CCCl)cc3)O[C@@H]2[C@@H]1O [Compound 67, N-Hydroxy-4-(4-N′,N′-bis(2-chloroethyl)amino)phenylbutylamino-D-glucurono-6,3-lactonide]",4.1 ± 0.2 µM,10.1 ± 0.4 µM,3.8 ± 0.1 µM,3.1 ± 0.1 µM,14.8 ± 0.8 µM,9.9 ± 0.2 µM,10.4 ± 0.6 µM,8.5 ± 0.5 µM,7.2 ± 0.3 µM,13.1 ± 0.4 µM,–
"O[C@@H]1[C@H](O)COC(N(O)CCCCc2ccc(N(CCCl)CCCl)cc2)[C@@H]1O (stereo partly drawn) [Compound 68, N-Hydroxy-4-(4-N′,N′-bis(2-chloroethyl)amino)phenylbutylamino-D-riboside]",3.2 ± 0.2 µM,0.89 ± 0.04 µM,1.6 ± 0.2 µM,1.5 ± 0.1 µM,> 5 µM,0.9 ± 0.05 µM,0.84 ± 0.05 µM,0.87 ± 0.05 µM,> 5 µM,1.04 ± 0.06 µM,–
"C[C@H]1O[C@@H](NNC(=O)CCCc2ccc(N(CCCl)CCCl)cc2)[C@H](O)[C@@H](O)[C@H]1O [Compound 72, 4-(4-N′,N′-bis(2-chloroethyl)amino)phenylbutylhydrazido-β-D-fucoside]",6.3 ± 0.2 µM,22 ± 1 µM,8.7 ± 0.3 µM,5.8 ± 0.1 µM,24 ± 2 µM,16.7 ± 0.7 µM,28 ± 1 µM,> 100 µM,11 ± 0.3 µM,51 ± 2 µM,–
"O=C(CCCc1ccc(N(CCCl)CCCl)cc1)NN[C@@H]1O[C@H]2[C@H](OC(=O)[C@H]2O)[C@H]1O [Compound 73, 4-(4-N′,N′-bis(2-chloroethyl)amino)phenylbutylhydrazido-D-glucurono-6,3-lactonide]",9.9 ± 0.5 µM,37 ± 2 µM,12.9 ± 0.7 µM,8.9 ± 0.4 µM,23 ± 2 µM,30 ± 2 µM,31 ± 2 µM,> 100 µM,17.7 ± 0.4 µM,43 ± 4 µM,–
"O=C(CCCc1ccc(N(CCCl)CCCl)cc1)NNC1OC[C@@H](O)[C@H](O)[C@H]1O (stereo partly drawn) [Compound 75, 4-(4-N′,N′-bis(2-chloroethyl)amino)phenylbutylhydrazido-D-xyloside]",4.5 ± 0.2 µM,12 ± 0.5 µM,3.9 ± 0.2 µM,2.5 ± 0.1 µM,19 ± 2 µM,7.2 ± 0.1 µM,14.8 ± 0.7 µM,> 100 µM,5.5 ± 0.4 µM,26 ± 3 µM,–
"N-Hydroxy-4-(4-N′,N′-bis(2-chloroethyl)amino)phenylbutylamino-D-threoside nitrone [Compound 70]",2 ± 0.1 µM,2.6 ± 0.1 µM,1.07 ± 0.08 µM,1.2 ± 0.1 µM,3.6 ± 0.2 µM,3.2 ± 0.1 µM,3 ± 0.2 µM,2.5 ± 0.1 µM,1.7 ± 0.1 µM,3.8 ± 0.1 µM,–
